Assay results as given in BigSolDB 2.1.

Structure (SMILES): CN/C(=C\[N+](=O)[O-])NCCSCc1csc(CN(C)C)n1
- solubility (mole fraction) (in acetone, 273.15 K): 0.00283
- solubility (mole fraction) (in acetone, 278.15 K): 0.0034
- solubility (mole fraction) (in acetone, 283.15 K): 0.00432
- solubility (mole fraction) (in acetone, 288.15 K): 0.00552
- solubility (mole fraction) (in acetone, 293.15 K): 0.00701
- solubility (mole fraction) (in acetone, 298.15 K): 0.00806
- solubility (mole fraction) (in acetone, 303.15 K): 0.0103
- solubility (mole fraction) (in acetone, 308.15 K): 0.0128
- solubility (mole fraction) (in acetone, 313.15 K): 0.0164
- solubility (mole fraction) (in acetone, 318.15 K): 0.0235
- solubility (mole fraction) (in acetone, 323.15 K): 0.0385
- solubility (mole fraction) (in ethanol, 273.15 K): 0.00287
- solubility (mole fraction) (in ethanol, 278.15 K): 0.00381
- solubility (mole fraction) (in ethanol, 283.15 K): 0.00487
- solubility (mole fraction) (in ethanol, 288.15 K): 0.00653
- solubility (mole fraction) (in ethanol, 293.15 K): 0.00867
- solubility (mole fraction) (in ethanol, 298.15 K): 0.0133
- solubility (mole fraction) (in ethanol, 303.15 K): 0.0167
- solubility (mole fraction) (in ethanol, 308.15 K): 0.0212
- solubility (mole fraction) (in ethanol, 313.15 K): 0.0301
- solubility (mole fraction) (in ethanol, 318.15 K): 0.0376
- solubility (mole fraction) (in ethanol, 323.15 K): 0.062
- solubility (mole fraction) (in ethanol, 328.15 K): 0.0955
- solubility (mole fraction) (in ethanol, 333.15 K): 0.179
- solubility (mole fraction) (in ethyl acetate, 273.15 K): 0.00029
- solubility (mole fraction) (in ethyl acetate, 278.15 K): 0.00033
- solubility (mole fraction) (in ethyl acetate, 283.15 K): 0.00043
- solubility (mole fraction) (in ethyl acetate, 288.15 K): 0.00058
- solubility (mole fraction) (in ethyl acetate, 293.15 K): 0.00063
- solubility (mole fraction) (in ethyl acetate, 298.15 K): 0.00082
- solubility (mole fraction) (in ethyl acetate, 303.15 K): 0.00093
- solubility (mole fraction) (in ethyl acetate, 308.15 K): 0.00148
- solubility (mole fraction) (in ethyl acetate, 313.15 K): 0.00187
- solubility (mole fraction) (in ethyl acetate, 318.15 K): 0.00219
- solubility (mole fraction) (in ethyl acetate, 323.15 K): 0.00269
- solubility (mole fraction) (in ethyl acetate, 328.15 K): 0.00343
- solubility (mole fraction) (in ethyl acetate, 333.15 K): 0.0042
- solubility (mole fraction) (in ethyl acetate, 338.15 K): 0.0055
- solubility (mole fraction) (in methanol, 273.15 K): 0.0167
- solubility (mole fraction) (in methanol, 278.15 K): 0.0211
- solubility (mole fraction) (in methanol, 283.15 K): 0.027
- solubility (mole fraction) (in methanol, 288.15 K): 0.0347
- solubility (mole fraction) (in methanol, 293.15 K): 0.0447
- solubility (mole fraction) (in methanol, 298.15 K): 0.0589
- solubility (mole fraction) (in methanol, 303.15 K): 0.0765
- solubility (mole fraction) (in methanol, 308.15 K): 0.103
- solubility (mole fraction) (in methanol, 313.15 K): 0.147
- solubility (mole fraction) (in methanol, 318.15 K): 0.203
- solubility (mole fraction) (in water, 273.15 K): 0.0225
- solubility (mole fraction) (in water, 278.15 K): 0.0232
- solubility (mole fraction) (in water, 283.15 K): 0.0238
- solubility (mole fraction) (in water, 288.15 K): 0.0247
- solubility (mole fraction) (in water, 293.15 K): 0.0257
- solubility (mole fraction) (in water, 298.15 K): 0.0297
- solubility (mole fraction) (in water, 303.15 K): 0.0325
- solubility (mole fraction) (in water, 308.15 K): 0.036
- solubility (mole fraction) (in water, 313.15 K): 0.0402
- solubility (mole fraction) (in water, 318.15 K): 0.0463
- solubility (mole fraction) (in water, 323.15 K): 0.0535
- solubility (mole fraction) (in water, 328.15 K): 0.0653
- solubility (mole fraction) (in water, 333.15 K): 0.0809
- solubility (mole fraction) (in water, 338.15 K): 0.109
- solubility (mole fraction) (in water, 343.15 K): 0.164
